Laboratory results published in patent US7087552B2, “Modification of floral scent in flowering plants” (Ball Horticultural Company, priority 1999, dated 2006).

Tests used:
Potted Snapdragon Plant = assay: Spray application to an intact potted snapdragon plant, headspace floral scent emission
Description: In this experiment, a flowering snapdragon plant was selected and the headspace collected for a single 24-hour period. After this time, the inflorescence-bearing stem was sprayed to the point of runoff with a solution of 1 mg/ml benzoic acid. […] The flowers were allowed to dry and the headspace collected for the next 24 hours. […] However, during this 24-hour period after spray application of benzoic acid, several interesting observations were made.

IS10a = conditions: tobacco cells exposed to 200–400 mM; cited from earlier work
Cut Snapdragon Flowers [1] = assay: Headspace GC-MS of floral scent emission from cut snapdragon flowers placed in treatment solutions; type: in vivo; conditions: for Percentage amount of total floral scent emitted compared to the 24-hour period prior to harvest: 5% (w/v) sucrose and/or 0.1 mg/ml benzoic acid
Description: Volatiles emitted from snapdragon flowers were determined by headspace analysis, as described previously (Raguso and […], 1995, Plant Systematics and Evolution 194:55-67). […] (light /dark) temperature cycle. Flowers attached to the plant were enclosed in a polyvinylacetate bag (Reynolds, Inc.) and purified air was pumped over the flower at a flow rate of 250 ml/minute. […] Ionization energy was set at 70 eV. Column temperature programming was: 50° C. for 1 minute, then heated to 240° C. at a rate of 10°/minute. The MS was scanned from 41 to 400 AMU (atomic mass units). Simultaneous collections of ambient volatiles were used as controls. Components were first identified through a computer database containing several thousand mass spectra and confirmed by comparison of retention times and mass spectra of authentic standards. Headspace collection of greenhouse-grown, inflorescence-bearing snapdragons (Maryland True Pink, PanAmerican Seed Company, West Chicago, Ill.) was carried out for 24 hours. The snapdragon inflorescence-bearing stems for this experiment were carefully chosen to have a similar number of same-aged flowers. […] The sucrose level chosen was based upon the conclusions reached by Ichimura and Hisamatsu (1999, Journal for the Japanese Society for Horticultural Science, 68:61-66) that 5% (w/v) sucrose was the optimum sucrose level for maximum vase life of cut snapdragon flowers.

[2] = test system: hypocotyl cells in light-grown, intact Nicotiana plumbaginifolia seedlings; conditions: 1 mM (approximately 0.125 mg/ml); cited from earlier work
[3] = test system: intact root systems of soybean seedlings; conditions: intact root systems exposed; cited from earlier work
Petunia Cuttings = assay: Headspace GC-MS of methylbenzoate emission from Mitchell petunia cuttings; type: in vivo; conditions: 5% (w/v) sucrose with or without 0.1 mg/ml benzoic acid
Description: The petunia variety called ‘Mitchell’ is an older, non-commercial (i.e., research use only) cultivar (generally available from academic research institutions) that was previously known to emit floral scent, especially during the evening hours. […] With this identification of floral scent in hand, the uptake experiments carried out in Example 2 on cut snapdragon stems were repeated with inflorescence-bearing Mitchell petunia cuttings.
Headspace collection was performed on two intact flowers for a 24-hour period prior to harvest to measure the amount of methylbenzoate emitted. This methylbenzoate emission was measured by GC-MS and these values set at 100%. The two inflorescence-bearing stems were harvested and immediately were placed into a vessel containing 5% (w/v) sucrose or a vessel containing 5% (w/v) sucrose supplemented with 0.1 mg/ml benzoic acid. Headspace collection was carried out as described in Example 2 on the cuttings for five 24-hour periods after harvesting. During the fifth 24-hour period, the flowers on both cuttings eventually senesced and collapsed.

Cut Snapdragon Flowers [4] = assay: Floral scent emission of cut snapdragon flowers after 48 hours at 4° C. in darkness; type: in vivo; conditions: collected for 5 days at ambient temperature in the light after 48 hours at 4° C. in darkness; 5% (w/v) sucrose with or without 0.1 mg/ml benzoic acid
Description: Inflorescence-bearing snapdragon stems were harvested and incubated in water for 48 hours at 4° C. in darkness (to simulate post-harvest conditions at a commercial grower's facility and during shipping). […] The floral scent emission from the flowers was then collected for 5 days, and the total emission compared between the various treatments.

spotted cucumber beetle = conditions: in vivo; cited from earlier work
H. lineata moths = conditions: in vivo; cited from earlier work
[5] = test system: lisianthus inflorescence-bearing stems; conditions: lisianthus (Eustoma), in vivo, 0.1 mg/ml
Description: (§1) To determine whether other floral scent precursors were taken up through the cut end of stems, and whether these compounds were transported in flowers other than snapdragon, the following experiment was performed.

[6] = test system: snapdragon inflorescence-bearing stems; conditions: in vivo, 0.1 mg/ml
Description: as §1

Snapdragon Petals [7] = assay: Conversion of 14C-labelled floral scent precursor to 14C-methylbenzoate in situ by excised snapdragon petal lobes (headspace, scintillation counting); conditions: for nanocuries of 14C-methylbenzoate from 14C-phenylalanine: 220 nCi applied
Description: Ten lower lobes of snapdragon flowers (variety Maryland True Pink, PanAmerican Seed Company, West Chicago, Ill.) were excised from the rest of the flower. Two microliters of ^14C-benzoic acid (500 nanocuries, or nCi) were pipetted onto the cut edge of the lower lobes. At this time, the lobes were allowed to sit for 10 minutes to permit uptake of the radiolabeled benzoic acid. The lobes were placed cut edge down on wet filter paper and the headspace collected over the course of the next four hours. The columns which trapped the volatiles were changed at 30, 60, 120 and 240 minutes after the start of incubation and eluted with 3 mls of hexane. The eluate (1.5 mls) was then analyzed in a liquid scintillation counter for the presence and amount of ^14C-methylbenzoate. The identity of ^14C-methylbenzoate was verified by its retention time on a thin-layer chromatography plate. As can be observed below in Table 2a, emission of ^14C-methylbenzoate was first detected within one hour after the start of the incubation period. […] This increase was even more dramatic over the next 2 hours as the amount of methylbenzoate emissions increased over 5-fold (compared to the first 2-hour collections period).
In additional experiments (see Table 2b below), an essentially identical radiolabeled experiment was performed in which ^14C-phenylalanine (220 nCi) was substituted for ^14C-benzoic acid as the radiolabeled floral scent precursor. As was observed previously with ^14C-benzoic acid, the ^14C-phenylalanine was rapidly converted to ^14C-methylbenzoate. Within just 30 minutes after the start of the incubation period, ^14C-methylbenzoate was detected. The amount of ^14C-methylbenzoate increased rapidly during the following three successive collection periods, respectively, (the rate increasing during each successive period).

Snapdragon Petals [8] = assay: as above; conditions: Time 240 min; 220 nCi applied
[9] = Post-Spray 24 hours, 1 mg/ml sprayed to runoff

Molecule: O=C(O)c1ccccc1 [BA, benzoic acid]
- phytotoxicity (Potted Snapdragon Plant; 1 mg/ml spray, after 24 hours): evidence of phytotoxicity
- Methylbenzoate emitted, percentage of amount emitted during the 24-hour period prior to spraying (Potted Snapdragon Plant; [9]): 152%
- Myrcene emitted, percentage of amount emitted during the 24-hour period prior to spraying (Potted Snapdragon Plant; [9]): 52%
- Ocimene emitted, percentage of amount emitted during the 24-hour period prior to spraying (Potted Snapdragon Plant; [9]): 58%
- Total floral scent emitted, percentage of amount emitted during the 24-hour period prior to spraying (Potted Snapdragon Plant; [9]): 98%
- contribution of the two monoterpenes to the overall floral scent (Potted Snapdragon Plant; after spraying 1 mg/ml (57% prior to spraying)): 33%
- transcription of IS10a (IS10a): induce the transcription
- Methylbenzoate emitted, percentage of amount emitted during the 24-hour period prior to harvest (Cut Snapdragon Flowers [1]; Day 1 after harvest): 84%
- Myrcene emitted, percentage of amount emitted during the 24-hour period prior to harvest (Cut Snapdragon Flowers [1]; Day 1 after harvest): 158%
- Ocimene emitted, percentage of amount emitted during the 24-hour period prior to harvest (Cut Snapdragon Flowers [1]; Day 1 after harvest): 139%
- Percentage amount of total floral scent emitted compared to the 24-hour period prior to harvest (Cut Snapdragon Flowers [1]; Day 1 after harvest): 120^ %
- Methylbenzoate emitted, percentage of amount emitted during the 24-hour period prior to harvest (Cut Snapdragon Flowers [1]; Day 2 after harvest): 91%
- Myrcene emitted, percentage of amount emitted during the 24-hour period prior to harvest (Cut Snapdragon Flowers [1]; Day 2 after harvest): 142%
- Ocimene emitted, percentage of amount emitted during the 24-hour period prior to harvest (Cut Snapdragon Flowers [1]; Day 2 after harvest): 122%
- Percentage amount of total floral scent emitted compared to the 24-hour period prior to harvest (Cut Snapdragon Flowers [1]; Day 2 after harvest): 114%
- Methylbenzoate emitted, percentage of amount emitted during the 24-hour period prior to harvest (Cut Snapdragon Flowers [1]; Day 3 after harvest): 8%
- Myrcene emitted, percentage of amount emitted during the 24-hour period prior to harvest (Cut Snapdragon Flowers [1]; Day 3 after harvest): 23%
- Ocimene emitted, percentage of amount emitted during the 24-hour period prior to harvest (Cut Snapdragon Flowers [1]; Day 3 after harvest): 20%
- Percentage amount of total floral scent emitted compared to the 24-hour period prior to harvest (Cut Snapdragon Flowers [1]; Day 3 after harvest): 15%
- Methylbenzoate emitted, percentage of amount emitted during the 24-hour period prior to harvest (Cut Snapdragon Flowers [1]; Day 4 after harvest): 4%
- Myrcene emitted, percentage of amount emitted during the 24-hour period prior to harvest (Cut Snapdragon Flowers [1]; Day 4 after harvest): 26%
- Ocimene emitted, percentage of amount emitted during the 24-hour period prior to harvest (Cut Snapdragon Flowers [1]; Day 4 after harvest): 18%
- Percentage amount of total floral scent emitted compared to the 24-hour period prior to harvest (Cut Snapdragon Flowers [1]; Day 4 after harvest): 16%
- Methylbenzoate emitted, percentage of amount emitted during the 24-hour period prior to harvest (Cut Snapdragon Flowers [1]; Day 5 after harvest): 3%
- Myrcene emitted, percentage of amount emitted during the 24-hour period prior to harvest (Cut Snapdragon Flowers [1]; Day 5 after harvest): 18%
- Ocimene emitted, percentage of amount emitted during the 24-hour period prior to harvest (Cut Snapdragon Flowers [1]; Day 5 after harvest): 18%
- Percentage amount of total floral scent emitted compared to the 24-hour period prior to harvest (Cut Snapdragon Flowers [1]; Day 5 after harvest): 12%
- membrane potential [2]: rapid and weak hyperpolarization
- electrolyte leakage [3]: rapid increase in electrolyte leakage

Molecule: OC[C@H]1O[C@@](CO)(O[C@H]2O[C@H](CO)[C@@H](O)[C@H](O)[C@H]2O)[C@@H](O)[C@@H]1O [Sucrose, sucrose, reference compound]
- Percentage amount of methylbenzoate emitted compared to the 24-hour period prior to harvest (Petunia Cuttings; Day 1 after harvest): 62^2%
- Percentage amount of methylbenzoate emitted compared to the 24-hour period prior to harvest (Petunia Cuttings; Day 2 after harvest): 76%
- Percentage amount of methylbenzoate emitted compared to the 24-hour period prior to harvest (Petunia Cuttings; Day 3 after harvest): 48%
- Percentage amount of methylbenzoate emitted compared to the 24-hour period prior to harvest (Petunia Cuttings; Day 4 after harvest): 33%
- Percentage amount of methylbenzoate emitted compared to the 24-hour period prior to harvest (Petunia Cuttings; Day 5 after harvest (flowers senesced and collapsed)): 23%
- Total Emission (Cut Snapdragon Flowers [4]): 30^1 Units of total floral scent
- Methylbenzoate emitted, percentage of amount emitted during the 24-hour period prior to harvest (Cut Snapdragon Flowers [1]; Day 1 after harvest): 78%
- Myrcene emitted, percentage of amount emitted during the 24-hour period prior to harvest (Cut Snapdragon Flowers [1]; Day 1 after harvest): 78%
- Ocimene emitted, percentage of amount emitted during the 24-hour period prior to harvest (Cut Snapdragon Flowers [1]; Day 1 after harvest): 88%
- Percentage amount of total floral scent emitted compared to the 24-hour period prior to harvest (Cut Snapdragon Flowers [1]; Day 1 after harvest): 85^ %
- Methylbenzoate emitted, percentage of amount emitted during the 24-hour period prior to harvest (Cut Snapdragon Flowers [1]; Day 2 after harvest): 30%
- Myrcene emitted, percentage of amount emitted during the 24-hour period prior to harvest (Cut Snapdragon Flowers [1]; Day 2 after harvest): 55%
- Ocimene emitted, percentage of amount emitted during the 24-hour period prior to harvest (Cut Snapdragon Flowers [1]; Day 2 after harvest): 58%
- Percentage amount of total floral scent emitted compared to the 24-hour period prior to harvest (Cut Snapdragon Flowers [1]; Day 2 after harvest): 48%

Molecule: O=CC=Cc1ccccc1 [cinnamaldehyde]
- attraction of the beetle (spotted cucumber beetle): attracted

Molecule: O=C(O)C=Cc1ccccc1 [cinnamic acid]
- electrolyte leakage [3]: rapid increase in electrolyte leakage

Molecule: OCC=Cc1ccccc1 [cinnamyl alcohol]
- attraction of the beetle (spotted cucumber beetle): attracted

Molecule: COC(=O)c1ccccc1 [methylbenzoate]
- EAG response (H. lineata moths): especially strong

Molecule: O=C(O)c1ccccc1O [salicylic acid]
- time of exposure until leaf necrosis was observed [5]: > 5 days
- time after exposure at which leaf necrosis was first noticeable [6]: ≤ 2 days

Molecule: ^14C-benzoic acid
- nanocuries of 14C-methylbenzoate from 14C-benzoic acid (Snapdragon Petals [7]; Time 0 min, 500 nCi applied to ten lower lobes): 0.030 nCi
- nanocuries of 14C-methylbenzoate from 14C-benzoic acid (Snapdragon Petals [7]; Time 30 min, 500 nCi applied): 0.036 nCi
- nanocuries of 14C-methylbenzoate from 14C-benzoic acid (Snapdragon Petals [7]; Time 60 min, 500 nCi applied): 0.354 nCi
- nanocuries of 14C-methylbenzoate from 14C-benzoic acid (Snapdragon Petals [7]; Time 120 min, 500 nCi applied): 2.544 nCi
- nanocuries of 14C-methylbenzoate from 14C-benzoic acid (Snapdragon Petals [7]; Time 240 min, 500 nCi applied): 13.226 nCi

Molecule: ^14C-phenylalanine
- nanocuries of 14C-methylbenzoate from 14C-phenylalanine (Snapdragon Petals [7]; Time 0 min): 0.295 nCi
- nanocuries of 14C-methylbenzoate from 14C-phenylalanine (Snapdragon Petals [7]; Time 30 min): 0.983 nCi
- nanocuries of 14C-methylbenzoate from 14C-phenylalanine (Snapdragon Petals [7]; Time 60 min): 1.874 nCi
- nanocuries of 14C-methylbenzoate from 14C-phenylalanine (Snapdragon Petals [7]; Time 120 min): 5.635 nCi
- nanocuries of 14C-methylbenzoate from 14C-phenylalanine (Snapdragon Petals [8]): 25.387 nCi
